Laboratory results as given in US20140142180A1, “METHODS OF TREATING TUMORS HAVING ELEVATED MCT1 EXPRESSION” (Whitehead Institute for Biomedical Research, priority 2012, published 2014).

Tests used:
Assay type in all cases: cell-based, human
SK-BR-3 cells = test: Cell survival assay, SK-BR-3
Procedure: Cell lines (5,000-20,000) were seeded in 96-well plates and treated with indicated amounts of 3-BrPA. After 3 days of treatment, CellTiter-Glo (Promega) and/or CyQuant (Invitrogen) were used to measure survival percentage for each concentration compared to untreated cells. FACS analysis with Annexin V and 7AAD staining was performed according to manufacturer's manual (BD Pharmingen).
15 cell lines (BT-474, BT-549, CAK1-1, CAL-51, HCC-70, HS578T, JURKAT, MDA-MB-157, MDA-MB-231, MDA-MB-453, MDA-MB-468, PC-3, SK-BR-3, T47D, ZR-75-1) were treated with 3-BrPA (0-300 μM). After 3 days, cell viability was quantified via CellTiter-Glo assay and an IC50 from the resulting dose-response curve was interpolated using a nonlinear regression model. Transcriptome-wide normalized mRNA levels from gene expression profiling experiments performed on the Affymetrix Human Genome U133 Plus 2.0 chip were obtained from the CCLE for all 15 cell lines. The mRNA expression pattern across all 15 samples for each of the genes was then correlated with the IC50 values. Similar correlation analysis was performed using OCR/ECAR values for each cell line.

[1] = tested on: AMPK and ACC phosphorylation; test: Immunoblot of AMPK and ACC phosphorylation, MCT1-null KBM7 cells; settings: 50 μM 3-BrPA
Procedure: Briefly, cells were rinsed twice in ice-cold PBS and harvested in a standard lysis buffer containing 50 mM Hepes, pH 7.4, 40 mM NaCl, 2 mM EDTA, 1.5 mM orthovanadate, 50 mM NaF, 10 mM pyrophosphate, 10 mM glycerophosphate, protease inhibitors (Roche) and 1% Triton-X-100. Proteins from total lysates were resolved by 8-12% SDS-PAGE, and analyzed by immunoblotting as described using anti-MCT1 (Millipore; Ab3540), anti-RPS6 and anti-raptor antibodies (1:1000)^50. For quantitation, ImageJ software was used and the signals were normalized using an equal loading control (RPS6/Raptor). Immunohistochemistry was performed on formalin-fixed paraffin embedded sections using a boiling Dako antigen retrieval method (Dako). A 1:500 dilution of the anti-MCT1 antibody was used for staining.

MCT1-null KBM7 cells = test: Cell survival assay, MCT1-null KBM7 clones
Procedure: A haploid cell genetic screen with 3-BrPA was performed using 100 million mutagenized KBM7 cells as described previously^29. Mutagenized haploid KBM-7 cells were exposed to 50 μM 3-BrPA for 3 weeks. Surviving clones were harvested and genomic DNA was isolated and insertions were amplified. The sequences flanking retroviral insertion sites were mapped to the human genome using inverse PCR followed by Ilium in a sequencing. Genomic regions with a high density of insertions were identified using the proximity index for a given insertion. Additionally, the statistical enrichment of insertions at a given locus in the selected population was calculated by comparing the number of inactivating insertions to those in the untreated control dataset via a Fisher's Exact Test. Individual clones were isolated among 50 different clones and genomic DNA for individually selected clones were isolated using a genomic DNA isolation kit (Qiagen). Genomic insertions were identified by inverse PCR and subsequent sequencing as described previously^24.
Cell lines (5,000-20,000) were seeded in 96-well plates and treated with indicated amounts of 3-BrPA. After 3 days of treatment, CellTiter-Glo (Promega) and/or CyQuant (Invitrogen) were used to measure survival percentage for each concentration compared to untreated cells. […]

Compound: O=C(O)C(=O)CBr [3-BrPA, 3-bromopyruvic acid]
- sensitivity to 3-BrPA (SK-BR-3 cells; SK-BR-3, low MCT1 level): resistant
- sensitivity to 3-BrPA with stable expression of MCT1 (SK-BR-3 cells; SK-BR-3 stably expressing MCT1 cDNA): sufficient to sensitize
- AMPK and ACC phosphorylation, markers of energy stress [1]: did not affect
- sensitivity to 3-BrPA after re-expression of MCT1 (MCT1-null KBM7 cells; MCT1-null KBM7 cells with exogenous MCT1): nearly completely restored their sensitivity
- resistance to 3-BrPA (MCT1-null KBM7 cells; MCT1-null KBM7 clones (Clone A and B), 50 μM, 3 days): completely resistant
